{"source": "patent US20100267733A1", "about": "“Synergistic Modulation of Microglial Activation by Nicotine and THC” (UNIVERSITY OF SOUTH FLORIDA, priority 2007, published 2010)", "key": {"N9 cells": {"test_system": "N9 cells", "experiment": "Cannabinoid agonist effects on microglial (N9) activation: TNF-α and NO release", "format": "cell-based, murine", "conditions": "JWH-015 5 μM", "protocol": "(§1) FIG. 3 is a block graph showing cannabinoid agonist effects on microglial (N9) activation. Cultured microglial cells were incubated with 100 ng/mL LPS (LPS), a combination of IFN-γ (100 U/mL) and CD-40L (2 μg/mL), or a combination of Aβ1-42 (1 μM) and CD-40L (2 μg/mL) and co-treated with JWH-015 (5 μM). Anti-CB2 siRNA was added to cells, abolishing the ability of JWH-015 to reduce LPS-induced cytokine release (n=3, **p<0.05). ELISA analysis of microglial cell release of (A) TNF-α and (B) NO was measured and mean levels per mg of total protein shown.\nCannabinoid receptors are expressed on microglia and regulate microglial function. As such, cannabinoid regulation of CD40 activation of microglial was investigated. N9 cells, transfected for 18 hr with specific murine CB2 targeting siRNA (100 nM), were treated for 4 hr with lipopolysaccharid (LPS), a positive control of microglia activation."}, "[1]": {"test_system": "mouse primary microglial cells", "experiment": "TNF-α secretion by primary microglial cells stimulated with IFN-γ/CD40L or Aβ1-42/CD40L (ELISA)", "format": "cell-based", "conditions": "24 hr, presence of JWH-015", "protocol": "as §1\nTo examine the functional consequences of CB2 agonist treatment on CD40 expression, mouse primary microglial cells were stimulated with either IFN-γ/CD40L protein (Polazzi, E., A. Contestabile, Reciprocal interactions between microglia and neurons: from survival to neuropathology. Rev. Neurosci., 2002. 13(3): 221-242; Facchinetti, F., et al., Cannabinoids ablate release of TNFalpha in rat microglial cells stimulated with lypopolysaccharide. Glia, 2003. 41(2): 161-168; Walter, L., et al., Nonpsychotropic cannabinoid receptors regulate microglial cell migration. J. Neurosci. 2003. 23(4):1398-405) or Aβ1-42/CD40L protein in the presence or absence of JWH-015 for 24 hr. […] After 3 hr, the amount of phagocytosed Aβ1-42 peptide was determined by quantitative immunoblotting experiments, seen in FIG. 4. […]"}, "[2]": {"test_system": "mouse primary microglial cells", "experiment": "Microglial phagocytosis of Aβ1-42 / Cy3-Aβ1-42 with CD40L (phagocytosis assay, quantitative immunoblotting)", "format": "cell-based", "protocol": "FIG. 4 is a graph showing CB2 stimulation modulates microglial phagocytic function. Mouse primary microglial cells were seeded at 5×10^5 cells/well and treated with 3 μM Cy3™-Aβ1-42 with CD-40L protein (2.5 μg/mL), JWH-015 (5 μM) or both JWH-015 and CD-40L. Aβ mean band densities are represented as ratios to β-actin+/−SD (n=3 for each condition).\nTo examine the functional consequences of CB2 agonist treatment on CD40 expression, mouse primary microglial cells were stimulated with either IFN-γ/CD40L protein (Polazzi, E., A. Contestabile, Reciprocal interactions between microglia and neurons: from survival to neuropathology. Rev. Neurosci., 2002. 13(3): 221-242; Facchinetti, F., et al., Cannabinoids ablate release of TNFalpha in rat microglial cells stimulated with lypopolysaccharide. Glia, 2003. 41(2): 161-168; Walter, L., et al., Nonpsychotropic cannabinoid receptors regulate microglial cell migration. J. Neurosci. 2003. 23(4):1398-405) or Aβ1-42/CD40L protein in the presence or absence of JWH-015 for 24 hr. […] The canonical microglial function in the CNS is thought to be phagocytosis, given that IFN-γ and CD40 signaling are maturation agents that oppose this phagocytic function. Murine primary microglial cultures were exposed to 3 μM of Aβ1-42 (for immunoblotting) or Cy3™-Aβ1-42 (for phagocytosis assay) in the presence or absence of CD40L protein or CD40L protein/JWH-015. After 3 hr, the amount of phagocytosed Aβ1-42 peptide was determined by quantitative immunoblotting experiments, seen in FIG. 4. […] CD40 ligation decreased microglial phagocytosis compared to controls, while CB2 agonist treatment alone increased phagocytosis compared to control. The presence of JWH-015 rescued microglial phagocytosis of Cy3-Aβ1-42 following CD40L treatment."}, "[3]": {"test_system": "primary cultured microglial cells", "format": "cell-based, murine", "protocol": "Primary cultured microglial cells (1×10^5 cells/well in 24-well tissue-culture plates) were treated with FITC-tagged Aβ1-42 (300 nM, pre-aggregated for 24 h at 37° C. in complete medium for 60 mm in the absence (control) or presence of nicotine ([…]). In addition, in parallel 24-well tissue-culture plates, microglial cells were incubated at […] with the same treatment above. Cell supernatants and lysates were analyzed for (A) extracellular and (B) cell associated FITC-Aβ using a fluorometer.\nConcentration-response and time-course functions for microglial phagocytosis (cellular uptake) of Aβ1-42 peptide were then characterized. […] To fully characterize these effects, primary microglial cells cultured in 24-well tissue-culture plates (1×10^5/well) were treated for 0, 15, 30, 60, 120, and 180 mm with “aged” FITC tagged Aβ1-42 peptide at 300 nM in the presence or absence of nicotine (0.1-10 μM), THC (0.01-10 μM), and their combination. The microglia were then administered nicotine (0.1-10 μM), THC (0.01-10 μM) and a combination. In addition, cannabinoid antagonists, AM 251 (CB1) and AM 281 […] (0.01-10 μM), cannabinoid agonists, ACEA (CB1) and JHW 015 (CB2) (0.01-10 μM), and nicotinic receptor antagonists, mecamylamine (α4β2) and α-bungorotoxin (α 7) (0.01-10 μM) were used in challenge experiments to determine receptor specificity. For fluorescence analysis, the cells were then washed 5 times with ice-cold PBS to remove the extracellular Aβ, and fixed in 4% paraformaldehyde. The cells were mounted and viewed under an Olympus IX71/IX51 fluorscence microscope equipped with a digital camera system. Image Pro software was used to quantify fluorescence signals, using a minimum of 5 random fields. For fluorometric analysis, microglial cells were treated in parallel, rinsing the cells 3 times with medium and the cells lysed. Extracellular and cell associated FITC tagged Aβ was quantified using an MFX 96-well microplate fluorometer (Molecular Devices, MDS, Inc., Sunnyvale, Calif.) with an emission wavelength of 538 nm and an excitation wavelength of 485 nm. A standard curve from 0 nM to 500 nM of FITC-tagged Aβ was run for each plate. The total cellular protein of all groups was quantified using the Bio-Rad protein assay. In addition, in parallel 24-well tissue-culture plates, microglial cells was incubated at 4° C. with FITC-conjugated Aβ with or without various combinations of CD40L as controls for non-specifically incorporated Aβ. Microglial cells was then rinsed 3 times in Aβ-free complete medium, and the media was exchanged with fresh Aβ-free complete medium for 10 min both to allow for removal of non-incorporated Aβ and to promote concentration of the Aβ into phagosomes. The mean fluorescence values for each sample at 37° C. and 4° C. at the indicated time points were determined by fluorometic analysis. Relative fold change values were calculated as: (mean fluorescence value for each sample at 37° C./mean fluorescence value for each sample at 4° C.). In this manner, both extracellular and cell associated FITC-labeled Aβ were quantified.\nFor phagocytosis experiments, an important concern is the possibility of extracellular association of Aβ with microglial cell membrane. To address this issue, microglial cells was rinsed in Aβ-free complete medium, and media was exchanged with fresh Aβ-medium for 10 mm both to allow for removal of non-specifically incorporated Aβ and to promote concentration of the Aβ into phagosomes. Microglial cells were further cultured in parallel 24-well plates incubated at 4° C. with FITC-tagged Aβ at the same time points in the presence or absence of the appropriate treatment as control for non-specifically incorporated Aβ."}, "microglial cells [4]": {"test_system": "microglial cells", "experiment": "LPS-induced TNF-α release in cultured microglial cells (ELISA)", "format": "cell-based, murine", "method": "Cultured microglial cells were plated in 24-well tissue-culture plates (Costar, Cambridge, Mass.), using minimum essential media supplemented with 5% fetal bovine serum, at […] cells per well. […] After pretreatment the cells were stimulated with LPS (100 ng/mL) for 4 hrs. Cell-free supernatants were collected and stored at −70° C. until analysis. The TNF-α level in the supernatants were examined using ELISA kits (R&D Systems) in strict accordance with the manufacturers' protocols. Cell lysates were also prepared and the Bio-Rad protein assay (Hercules, Calif.) was performed to measure total cellular protein. Results are shown as mean pg of TNF-α per mg of total cellular protein (+1-SEM).\nMurine primary culture microglial cells were isolated from newborn mouse cerebral cortices under sterile conditions and kept at 4° C. prior to mechanical dissociation. Cells were plated in 75 cm^2 flasks in RPMI medium supplemented with 5% fetal calf serum, 2 mM glutamine, 100 units/mL penicillin, 0.1 μg/mL streptomycin, and 0.05 mM 2-mercaptoethanol and kept for 14 days so only glial cells remain. The microglial cells were isolated by shaking the flasks at 200 rpm. More than 98% of the glial cells remaining stain positive for membrane attack complex-1 (CD-11b, Roche Diagnostics Corp., Indianapolis, Ind.). Additionally, between 85% and 95% of microglial cells usually stain positive for CD45 by fluorescence activated cell sorter (FACS) analysis.\nCell cultured media was collected for measurement of cytokines by commercial cytokine ELISA kits, as described previously. In parallel, cell lysates were prepared for measurement of total cellular protein. Data was represented as ng/mg total cellular protein for each cytokine production.\nCell cultures were treated with nicotinic/THC treatment, as described above. […] Each cytokine was represented as pg of cytokine/mg of total cellular protein. Data was analyzed using ANOVA with post hoc comparison using Bonferroni's or Dunnett's T3 methods as determined by Levene's test for equality of the variances."}, "microglial cells [5]": {"test_system": "microglial cells"}, "Tg2576 transgenic mice": {"test_system": "Tg2576 transgenic mice", "conditions": "mouse, in vivo; cited from earlier work"}}, "note": "Where two headings read alike, the source gives them in different places."}
{"compound": "CCCn1c(C)c(C(=O)c2cccc3ccccc23)c2ccccc21", "note": "[JWH-015]", "values": [{"measurement": "Aβ/CD-40L-induced NO production", "setting": "N9 cells; Aβ1-42 1 μM, CD-40L 2 μg/mL, FIG. 3(B)", "value": "significantly reduced"}, {"measurement": "IFN-γ/CD-40L-induced NO production", "setting": "N9 cells; IFN-γ 100 U/mL, CD-40L 2 μg/mL, FIG. 3(B)", "value": "significantly reduced"}, {"measurement": "LPS-induced TNF-α release", "setting": "N9 cells; N9 cells, LPS 100 ng/mL 4 hr, FIG. 3(A)", "value": "reductions"}, {"measurement": "secretion of TNF-α induced by Aβ1-42/CD40L", "setting": "[1]", "value": "significantly reduced"}, {"measurement": "secretion of TNF-α induced by IFN-γ/CD40L", "setting": "[1]", "value": "significantly reduced"}, {"measurement": "microglial phagocytosis compared to control", "setting": "[2]; CB2 agonist treatment alone, 3 μM Aβ1-42, 3 hr", "value": "increased"}, {"measurement": "microglial phagocytosis of Cy3-Aβ1-42 following CD40L treatment", "setting": "[2]; JWH-015 5 μM with CD40L protein, 3 hr", "value": "rescued"}, {"measurement": "CD40L-mediated impairment of microglial phagocytosis of Aβ1-42 (band density ratio of Aβ to β-actin)", "setting": "[2]; Western immunoblotting, parallel experiment", "value": "significant attenuation"}, {"measurement": "Aβ levels (Aβ band densities compared to β-actin)", "setting": "[2]; quantitative immunoblotting, FIG. 4", "value": "significantly reduced"}]}
{"compound": "CCCCCc1cc(O)c2c(c1)OC(C)(C)[C@@H]1CCC(C)=C[C@@H]21", "note": "[THC, Δ^9-tetrahydrocannabinol]", "values": [{"measurement": "cell-associated FITC-Aβ1-42", "setting": "[3]; THC 5 μM", "value": "increasing"}, {"measurement": "extracellular FITC-Aβ1-42 remaining in the supernatant", "setting": "[3]; THC 5 μM", "value": "markedly decreased"}, {"measurement": "receptor mediating the effect on microglial phagocytosis of Aβ", "setting": "[3]; challenge experiments with receptor antagonists/agonists", "value": "cannabinoid CB2 receptors"}]}
{"compound": "CNC1(C)C2CCC(C2)C1(C)C", "note": "(centres unmarked) [mecamylamine]", "values": [{"measurement": "prevention of the ACh and nicotine inhibition of LPS-induced TNF-α release", "setting": "microglial cells [4]", "value": "prevented"}]}
{"compound": "CN1CCCC1c1cccnc1", "note": "(centres unmarked) [nicotine]", "values": [{"measurement": "LPS-induced TNF-α release", "setting": "microglial cells [4]", "value": "inhibited"}, {"measurement": "cell-associated FITC-Aβ1-42", "setting": "[3]", "value": "increasing"}, {"measurement": "extracellular FITC-Aβ1-42 remaining in the supernatant", "setting": "[3]", "value": "markedly decreased"}, {"measurement": "microglial phagocytosis of Aβ1-42 peptide", "setting": "[3]", "value": "enhanced"}, {"measurement": "receptor mediating the effect on microglial phagocytosis of Aβ", "setting": "[3]", "value": "α7 nicotinic receptors"}, {"measurement": "microglial-released IL-1β", "setting": "microglial cells [5]", "value": "effectively suppress"}, {"measurement": "microglial-released IL-6", "setting": "microglial cells [5]", "value": "effectively suppress"}, {"measurement": "microglial-released TNF-α", "setting": "microglial cells [5]", "value": "effectively suppress"}, {"measurement": "reduction in insoluble Aβ1-40 and Aβ1-42 peptides", "setting": "Tg2576 transgenic mice", "value": "~80", "unit": "%"}]}
{"compound": "α-bungarotoxin", "values": [{"measurement": "prevention of the ACh and nicotine inhibition of LPS-induced TNF-α release", "setting": "microglial cells [4]", "value": "prevented"}]}
